Measured values reported in paper PMC2895764 (Journal of molecular biology, 2010).

Experiments:
NIH 3T3 cell = assay: Reactivation of K-ras-mediated epigenetic silencing of Fas gene; type: cell-based
G9a-like protein (GLP) = details: cited from earlier work

Row | SMILES | reactivation (derepression) of Ras-mediated epigenetic silencing of Fas (NIH 3T3 cell) | IC50 against GLP (G9a-like protein (GLP))
1 | Nc1ncn([C@H]2C[C@H](O)[C@@H](CO)O2)c(=O)n1 [5-aza, 5-aza-2′-deoxycytidine] | derepressed | –
2 | COc1cc2nc(N3CCCN(C)CC3)nc(NC3CCN(Cc4ccccc4)CC3)c2cc1OC [BIX-01294] | derepressed | low μM range
